Reference: ChEMBL document CHEMBL1201862, “PubChem BioAssay data set” (2004)
Calls of active or inactive are those of the source.

What was measured:
Cytochrome P450 1A2 [1] = target: T1, Cytochrome P450 1A2 (Homo sapiens, UniProt P05177);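 also: PubChem cytochrome P450 panel assay, CYP1A2 panel member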
T1 sequence (P05177 whole entry): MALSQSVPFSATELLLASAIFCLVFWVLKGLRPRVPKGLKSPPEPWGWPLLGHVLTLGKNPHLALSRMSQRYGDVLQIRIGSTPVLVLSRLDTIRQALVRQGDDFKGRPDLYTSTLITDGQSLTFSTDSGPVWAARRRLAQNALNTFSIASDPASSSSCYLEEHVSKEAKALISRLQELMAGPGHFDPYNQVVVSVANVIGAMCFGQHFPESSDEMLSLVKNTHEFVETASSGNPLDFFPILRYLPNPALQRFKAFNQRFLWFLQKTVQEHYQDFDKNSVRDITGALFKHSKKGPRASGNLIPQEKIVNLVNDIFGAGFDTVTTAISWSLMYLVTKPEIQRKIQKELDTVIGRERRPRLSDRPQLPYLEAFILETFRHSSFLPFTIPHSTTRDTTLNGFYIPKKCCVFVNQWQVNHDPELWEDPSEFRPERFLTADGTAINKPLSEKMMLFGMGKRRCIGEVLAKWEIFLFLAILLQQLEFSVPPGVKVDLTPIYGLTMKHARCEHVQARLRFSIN

[2] = Luminescence Cell-Based Dose Retest to Confirm Inhibitors of Cancer Stem Cells. [Related pubchem assays (depositor defined):AID2717, AID2721]; assay type: functional; conditions: Homo sapiens
CAAX prenyl protease 2 [3] = target: T2, CAAX prenyl protease 2 (Saccharomyces cerevisiae S288c, UniProt Q03530); assay type: biochemical
T2 sequence (Q03530 whole entry): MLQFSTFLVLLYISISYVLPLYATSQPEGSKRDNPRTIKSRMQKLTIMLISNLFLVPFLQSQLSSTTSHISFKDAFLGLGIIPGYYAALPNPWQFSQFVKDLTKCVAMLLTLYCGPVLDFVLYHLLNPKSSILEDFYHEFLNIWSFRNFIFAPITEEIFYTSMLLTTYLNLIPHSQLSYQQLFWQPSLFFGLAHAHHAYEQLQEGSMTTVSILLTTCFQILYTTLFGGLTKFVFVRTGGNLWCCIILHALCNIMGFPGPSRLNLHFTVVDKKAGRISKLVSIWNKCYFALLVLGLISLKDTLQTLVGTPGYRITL

[4] = viability loss of HMLE_sh_eGFP cells – cell-based, luminescence, counter-screen for HMLE_sh_ECad selective toxicity project, dose response (AID 463074); assay type: functional, Homo sapiens;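 also: HMLE human mammary epithelial cells expressing control shRNA against eGFP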
[5] = toxicity toward cultured mammalian cells – cell-based, plate reader, cherry-pick samples, cytotoxicity control, dose response (AID 504397); assay type: functional
CAAX prenyl protease 2 [6] = target: CAAX prenyl protease 2 (Homo sapiens, UniProt Q9Y256); assay: inhibition of Ras-converting CAAX protease Rce1 – biochemical, yeast membranes, quenched-peptide fluorescence, cherry-pick, dose response (AID 588849)
[7] = target: T3, Microphthalmia-associated transcription factor (Homo sapiens, UniProt O75030); assay: reducers of TRPM1 reporter luminescence, concentration series – cell-based, SK-MEL-5, cherry-picked, set 3, MITF inhibitor project, dose response (AID 493073); assay type: functional;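 also: SK-MEL-5 melanoma cells with luciferase driven by the MITF target TRPM1 promoter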
T3 sequence (O75030 whole entry): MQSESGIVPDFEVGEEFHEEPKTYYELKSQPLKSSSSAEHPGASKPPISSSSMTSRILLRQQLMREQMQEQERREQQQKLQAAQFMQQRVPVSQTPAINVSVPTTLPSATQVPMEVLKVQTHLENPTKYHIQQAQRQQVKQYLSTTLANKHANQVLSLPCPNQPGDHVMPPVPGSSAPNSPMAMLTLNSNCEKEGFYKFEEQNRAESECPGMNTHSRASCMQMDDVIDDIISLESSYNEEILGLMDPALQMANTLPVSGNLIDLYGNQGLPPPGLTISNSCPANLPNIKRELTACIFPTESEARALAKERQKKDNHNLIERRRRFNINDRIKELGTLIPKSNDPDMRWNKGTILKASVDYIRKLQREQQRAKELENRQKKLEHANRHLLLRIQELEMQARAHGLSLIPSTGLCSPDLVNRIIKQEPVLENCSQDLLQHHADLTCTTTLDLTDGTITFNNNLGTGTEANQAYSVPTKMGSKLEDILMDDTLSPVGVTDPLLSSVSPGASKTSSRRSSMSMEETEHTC

A-375 [8] = assay: MITF: Counter assay: A375 proliferation Measured in Cell-Based System Using Plate Reader - 2084-03_Inhibitor_Dose_DryPowder_Activity. [Related pubchem assays (depositor defined):AID488944]; assay type: functional; conditions: Homo sapiens
A-375 [9] = assay: proliferation inhibition in MITF-low A375 cells – cell-based, cherry-pick samples, set 2, counter-screen for MITF modulator project, dose response (AID 540335); assay type: functional; conditions: Homo sapiens
[10] = target: Voltage-dependent T-type calcium channel subunit alpha-1H (Homo sapiens, UniProt O95180); assay: inhibition of CACNA1H calcium flux – cell-based, SynthLib3 library, HEK293 Cav3.2, fluorescence (AID 493041); assay type: functional
[11] = target: T4, Short transient receptor potential channel 4 (Mus musculus, UniProt Q9QUQ5); assay: calcium entry via TRPC4 opening agents – cell-based, HEK293 TRPC4/mu-opioid, Fluo-4 calcium, dose response (AID 434937); assay type: functional
T4 sequence (Q9QUQ5 whole entry): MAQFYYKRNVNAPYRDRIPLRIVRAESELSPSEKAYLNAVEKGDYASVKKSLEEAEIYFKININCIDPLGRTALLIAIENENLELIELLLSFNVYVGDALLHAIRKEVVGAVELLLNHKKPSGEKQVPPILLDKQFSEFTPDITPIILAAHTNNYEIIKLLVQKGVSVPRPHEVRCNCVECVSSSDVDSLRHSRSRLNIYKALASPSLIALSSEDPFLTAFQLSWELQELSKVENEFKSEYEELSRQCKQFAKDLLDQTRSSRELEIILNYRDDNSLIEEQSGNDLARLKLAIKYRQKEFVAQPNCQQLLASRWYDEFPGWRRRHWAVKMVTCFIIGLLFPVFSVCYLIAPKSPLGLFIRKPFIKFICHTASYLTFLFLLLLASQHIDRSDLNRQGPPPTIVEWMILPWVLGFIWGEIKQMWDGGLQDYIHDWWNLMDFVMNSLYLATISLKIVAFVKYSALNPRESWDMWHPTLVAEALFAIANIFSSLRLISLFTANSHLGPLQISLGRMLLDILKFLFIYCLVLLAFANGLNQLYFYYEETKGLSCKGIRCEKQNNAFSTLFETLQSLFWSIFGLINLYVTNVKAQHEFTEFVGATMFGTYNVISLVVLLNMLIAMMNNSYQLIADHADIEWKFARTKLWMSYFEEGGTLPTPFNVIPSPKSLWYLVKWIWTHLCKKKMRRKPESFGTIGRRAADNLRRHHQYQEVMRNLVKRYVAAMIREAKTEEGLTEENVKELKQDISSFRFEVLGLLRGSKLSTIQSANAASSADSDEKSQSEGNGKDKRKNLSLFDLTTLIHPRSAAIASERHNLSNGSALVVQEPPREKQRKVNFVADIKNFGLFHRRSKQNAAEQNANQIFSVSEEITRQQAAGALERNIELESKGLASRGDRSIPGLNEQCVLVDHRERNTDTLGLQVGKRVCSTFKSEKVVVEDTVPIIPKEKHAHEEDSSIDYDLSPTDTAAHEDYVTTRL

[12] = target: Delta-type opioid receptor (Homo sapiens, UniProt P41143); assay: Counterscreen for agonists of heterodimerization of the mu 1 (OPRM1) and delta 1 (OPRD1) opioid receptors: Luminescence-based cell-based high throughput dose response assay to identify agonists of OPRD1 homodimerization. [Related pubchem assays (depositor defined):AID504326, AID504355, AID504692, AID504904, AID504905]; assay type: functional
Mu-type opioid receptor = Mu-type opioid receptor (Homo sapiens, UniProt P35372); assay: Counterscreen for agonists of heterodimerization of the mu 1 (OPRM1) and delta 1 (OPRD1) opioid receptors: Luminescence-based cell-based high throughput dose response assay to identify agonists of OPRM1 homodimerization.; assay type: functional;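 also: U2OS cells expressing OPRM1 and beta-arrestin as split beta-galactosidase partners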
[13] = target: 5-hydroxytryptamine receptor 5A (Homo sapiens, UniProt P47898); assay: Counterscreen for agonists of OPRM1-OPRD1 heterodimerization: luminescence-based cell-based high throughput dose response assay to identify agonists of 5-hydroxytryptamine (serotonin) 5A receptor (HTR5A). [Related pubchem assays (depositor defined):AID504326, AID504355, AID504692, AID504904, AID504905]; assay type: functional
[14] = Trypanosoma cruzi growth suppression in host cells – NIH3T3 host cells, beta-gal luminescence, confirmation (AID 2044); assay type: functional, cell-based;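 also: intracellular parasites grown in NIH/3T3 mouse fibroblasts as host cells; luminescent beta-galactosidase reporter signal from transgenic T. cruzi replicating inside host cells; inhibitors lower the luminescence signal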
[15] = NIH3T3 cell viability loss – ATP luminescence, mouse fibroblasts, counter-screen, dose response (AID 2010); assay type: functional, cell-based;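 also: cells exposed to compound for about 90 hours before reading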
Jurkat = assay: blockers of NF-kB activation in T cells – Jurkat, luciferase reporter, luminescence, B- and T-cell, dose response (AID 489004); assay type: functional, cell-based; conditions: Homo sapiens;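 also: NF-kB luciferase reporter Jurkat cells stimulated with PMA plus ionomycin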
[16] = HEK-293T viability loss, compound-treated – cell-based, uHTS hits, cytotoxicity control for B/T-cell NF-kB inhibitor project, dose response (AID 489019); assay type: functional;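 also: IC50 reflects cytotoxicity as loss of cell viability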
INS1 = assay: INS-1E survival protection against cytokine death – cell-based, luminescence, retest, dose response (AID 449756); assay type: functional; conditions: Rattus norvegicus;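 also: cell death triggered by IL-1 beta plus TNF-alpha plus IFN-gamma mixture; protective hits raise ATP signal compared with cytokine alone wells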
Cytochrome P450 1A2 [17] = target: T1, Cytochrome P450 1A2; remark: listed apart in the source
Cytochrome P450 2C9 = Cytochrome P450 2C9 (Homo sapiens, UniProt P11712)
Cytochrome P450 3A4 = Cytochrome P450 3A4 (Homo sapiens, UniProt P08684);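 also: CYP3A4 tested as one member of a cytochrome P450 panel screen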
[18] = NIH-3T3 fibroblast cytotoxicity, dose response, cytotoxicity control, cell-based, fluorescence, Alamar Blue, secondary assay (AID 2327); assay type: functional;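 also: NIH-3T3 mouse fibroblasts cultured with fluconazole at 8 µg/mL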
[19] = fluconazole-exposed Candida albicans growth modulators – fluorescence, retest, confirmation (AID 2467); assay type: functional, cell-based
Vero [20] = assay: cells; assay type: functional, cell-based; conditions: Chlorocebus sabaeus
Vero [21] = assay: cells; assay type: functional; conditions: Chlorocebus sabaeus
[22] = decrease of insulin promoter-GFP reporter – imaging, high-content screening, mouse beta cells (AID 1628); assay type: functional; conditions: MIN6
[23] = MIN6 cell viability loss – mouse insulinoma, cytotoxicity control, dose response (AID 2122); assay type: functional;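 also: confirmatory high-throughput counterscreen run to flag cytotoxic compounds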
[24] = T. cruzi infection blockers in NIH3T3 cells – beta-gal luminescence, NIH3T3 host cells, confirmation (AID 2630); assay type: functional, cell-based; conditions: Mus musculus
[25] = target: Voltage-gated inwardly rectifying potassium channel KCNH2 (Homo sapiens, UniProt Q12809); conditions: Potency;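 also: confirmatory quantitative high-throughput screen measuring inhibition of hERG channel activity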
Voltage-gated inwardly rectifying potassium channel KCNH2, sequence (Q12809 whole entry): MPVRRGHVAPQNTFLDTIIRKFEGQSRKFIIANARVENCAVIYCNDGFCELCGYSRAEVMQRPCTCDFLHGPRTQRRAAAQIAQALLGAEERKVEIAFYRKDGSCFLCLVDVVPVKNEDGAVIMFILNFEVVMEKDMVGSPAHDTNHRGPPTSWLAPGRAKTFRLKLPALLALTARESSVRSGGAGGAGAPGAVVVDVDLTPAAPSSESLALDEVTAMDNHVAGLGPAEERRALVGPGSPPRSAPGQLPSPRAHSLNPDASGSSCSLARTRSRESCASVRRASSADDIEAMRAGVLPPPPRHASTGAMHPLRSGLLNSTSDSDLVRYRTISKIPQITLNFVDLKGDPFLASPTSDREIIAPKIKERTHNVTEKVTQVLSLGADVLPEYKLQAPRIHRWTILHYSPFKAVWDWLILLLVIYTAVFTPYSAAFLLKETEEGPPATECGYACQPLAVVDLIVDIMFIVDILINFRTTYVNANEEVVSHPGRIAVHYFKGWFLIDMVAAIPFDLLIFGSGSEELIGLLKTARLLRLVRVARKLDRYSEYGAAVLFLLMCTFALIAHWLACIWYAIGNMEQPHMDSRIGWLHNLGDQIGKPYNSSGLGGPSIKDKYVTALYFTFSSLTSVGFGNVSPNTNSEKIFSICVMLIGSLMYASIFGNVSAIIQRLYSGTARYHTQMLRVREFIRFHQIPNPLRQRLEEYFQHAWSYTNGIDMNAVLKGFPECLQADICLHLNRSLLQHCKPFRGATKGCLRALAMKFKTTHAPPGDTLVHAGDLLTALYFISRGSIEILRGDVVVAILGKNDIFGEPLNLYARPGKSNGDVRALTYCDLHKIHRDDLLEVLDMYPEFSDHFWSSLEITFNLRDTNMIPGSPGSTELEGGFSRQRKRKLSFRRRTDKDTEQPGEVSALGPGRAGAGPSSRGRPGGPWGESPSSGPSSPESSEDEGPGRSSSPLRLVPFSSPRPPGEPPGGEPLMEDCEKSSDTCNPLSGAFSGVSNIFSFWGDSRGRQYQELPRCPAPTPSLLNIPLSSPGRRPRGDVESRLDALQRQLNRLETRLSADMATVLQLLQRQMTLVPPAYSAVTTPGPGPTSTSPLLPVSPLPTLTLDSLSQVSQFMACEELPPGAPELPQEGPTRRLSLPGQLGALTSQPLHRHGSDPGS

5-hydroxytryptamine receptor 5A, sequence (P47898 whole entry): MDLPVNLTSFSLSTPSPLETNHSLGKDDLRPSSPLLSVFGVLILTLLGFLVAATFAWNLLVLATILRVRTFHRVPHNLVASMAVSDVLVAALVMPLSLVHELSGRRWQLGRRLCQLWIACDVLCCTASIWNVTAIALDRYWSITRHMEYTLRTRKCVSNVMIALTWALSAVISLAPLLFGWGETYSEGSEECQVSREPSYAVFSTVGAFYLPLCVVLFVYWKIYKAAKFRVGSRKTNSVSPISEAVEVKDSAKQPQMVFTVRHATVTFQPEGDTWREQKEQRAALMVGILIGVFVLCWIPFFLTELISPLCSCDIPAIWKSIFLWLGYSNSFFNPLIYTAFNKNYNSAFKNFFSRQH
CAAX prenyl protease 2 (Homo sapiens, UniProt Q9Y256), sequence (Q9Y256 whole entry): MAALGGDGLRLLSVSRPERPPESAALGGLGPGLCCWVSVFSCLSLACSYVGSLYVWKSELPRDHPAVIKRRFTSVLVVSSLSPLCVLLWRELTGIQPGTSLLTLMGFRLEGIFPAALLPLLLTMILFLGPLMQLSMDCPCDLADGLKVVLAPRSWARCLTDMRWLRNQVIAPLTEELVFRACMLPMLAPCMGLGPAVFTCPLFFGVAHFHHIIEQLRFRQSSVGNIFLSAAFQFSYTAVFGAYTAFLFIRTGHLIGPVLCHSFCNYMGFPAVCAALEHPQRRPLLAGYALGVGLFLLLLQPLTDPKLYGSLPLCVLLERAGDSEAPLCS
Mu-type opioid receptor, sequence (P35372 whole entry): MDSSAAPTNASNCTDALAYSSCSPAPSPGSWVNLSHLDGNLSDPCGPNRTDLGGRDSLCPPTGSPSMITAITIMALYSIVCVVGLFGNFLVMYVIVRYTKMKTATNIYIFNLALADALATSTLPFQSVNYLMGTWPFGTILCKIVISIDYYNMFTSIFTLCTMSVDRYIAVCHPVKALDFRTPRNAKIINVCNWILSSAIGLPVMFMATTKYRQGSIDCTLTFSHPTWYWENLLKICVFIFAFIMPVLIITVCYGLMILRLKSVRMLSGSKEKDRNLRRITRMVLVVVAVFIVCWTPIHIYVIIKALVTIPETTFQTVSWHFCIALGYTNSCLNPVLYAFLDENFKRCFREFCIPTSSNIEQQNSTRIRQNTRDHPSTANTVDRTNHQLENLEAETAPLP
Voltage-dependent T-type calcium channel subunit alpha-1H, sequence (O95180 whole entry): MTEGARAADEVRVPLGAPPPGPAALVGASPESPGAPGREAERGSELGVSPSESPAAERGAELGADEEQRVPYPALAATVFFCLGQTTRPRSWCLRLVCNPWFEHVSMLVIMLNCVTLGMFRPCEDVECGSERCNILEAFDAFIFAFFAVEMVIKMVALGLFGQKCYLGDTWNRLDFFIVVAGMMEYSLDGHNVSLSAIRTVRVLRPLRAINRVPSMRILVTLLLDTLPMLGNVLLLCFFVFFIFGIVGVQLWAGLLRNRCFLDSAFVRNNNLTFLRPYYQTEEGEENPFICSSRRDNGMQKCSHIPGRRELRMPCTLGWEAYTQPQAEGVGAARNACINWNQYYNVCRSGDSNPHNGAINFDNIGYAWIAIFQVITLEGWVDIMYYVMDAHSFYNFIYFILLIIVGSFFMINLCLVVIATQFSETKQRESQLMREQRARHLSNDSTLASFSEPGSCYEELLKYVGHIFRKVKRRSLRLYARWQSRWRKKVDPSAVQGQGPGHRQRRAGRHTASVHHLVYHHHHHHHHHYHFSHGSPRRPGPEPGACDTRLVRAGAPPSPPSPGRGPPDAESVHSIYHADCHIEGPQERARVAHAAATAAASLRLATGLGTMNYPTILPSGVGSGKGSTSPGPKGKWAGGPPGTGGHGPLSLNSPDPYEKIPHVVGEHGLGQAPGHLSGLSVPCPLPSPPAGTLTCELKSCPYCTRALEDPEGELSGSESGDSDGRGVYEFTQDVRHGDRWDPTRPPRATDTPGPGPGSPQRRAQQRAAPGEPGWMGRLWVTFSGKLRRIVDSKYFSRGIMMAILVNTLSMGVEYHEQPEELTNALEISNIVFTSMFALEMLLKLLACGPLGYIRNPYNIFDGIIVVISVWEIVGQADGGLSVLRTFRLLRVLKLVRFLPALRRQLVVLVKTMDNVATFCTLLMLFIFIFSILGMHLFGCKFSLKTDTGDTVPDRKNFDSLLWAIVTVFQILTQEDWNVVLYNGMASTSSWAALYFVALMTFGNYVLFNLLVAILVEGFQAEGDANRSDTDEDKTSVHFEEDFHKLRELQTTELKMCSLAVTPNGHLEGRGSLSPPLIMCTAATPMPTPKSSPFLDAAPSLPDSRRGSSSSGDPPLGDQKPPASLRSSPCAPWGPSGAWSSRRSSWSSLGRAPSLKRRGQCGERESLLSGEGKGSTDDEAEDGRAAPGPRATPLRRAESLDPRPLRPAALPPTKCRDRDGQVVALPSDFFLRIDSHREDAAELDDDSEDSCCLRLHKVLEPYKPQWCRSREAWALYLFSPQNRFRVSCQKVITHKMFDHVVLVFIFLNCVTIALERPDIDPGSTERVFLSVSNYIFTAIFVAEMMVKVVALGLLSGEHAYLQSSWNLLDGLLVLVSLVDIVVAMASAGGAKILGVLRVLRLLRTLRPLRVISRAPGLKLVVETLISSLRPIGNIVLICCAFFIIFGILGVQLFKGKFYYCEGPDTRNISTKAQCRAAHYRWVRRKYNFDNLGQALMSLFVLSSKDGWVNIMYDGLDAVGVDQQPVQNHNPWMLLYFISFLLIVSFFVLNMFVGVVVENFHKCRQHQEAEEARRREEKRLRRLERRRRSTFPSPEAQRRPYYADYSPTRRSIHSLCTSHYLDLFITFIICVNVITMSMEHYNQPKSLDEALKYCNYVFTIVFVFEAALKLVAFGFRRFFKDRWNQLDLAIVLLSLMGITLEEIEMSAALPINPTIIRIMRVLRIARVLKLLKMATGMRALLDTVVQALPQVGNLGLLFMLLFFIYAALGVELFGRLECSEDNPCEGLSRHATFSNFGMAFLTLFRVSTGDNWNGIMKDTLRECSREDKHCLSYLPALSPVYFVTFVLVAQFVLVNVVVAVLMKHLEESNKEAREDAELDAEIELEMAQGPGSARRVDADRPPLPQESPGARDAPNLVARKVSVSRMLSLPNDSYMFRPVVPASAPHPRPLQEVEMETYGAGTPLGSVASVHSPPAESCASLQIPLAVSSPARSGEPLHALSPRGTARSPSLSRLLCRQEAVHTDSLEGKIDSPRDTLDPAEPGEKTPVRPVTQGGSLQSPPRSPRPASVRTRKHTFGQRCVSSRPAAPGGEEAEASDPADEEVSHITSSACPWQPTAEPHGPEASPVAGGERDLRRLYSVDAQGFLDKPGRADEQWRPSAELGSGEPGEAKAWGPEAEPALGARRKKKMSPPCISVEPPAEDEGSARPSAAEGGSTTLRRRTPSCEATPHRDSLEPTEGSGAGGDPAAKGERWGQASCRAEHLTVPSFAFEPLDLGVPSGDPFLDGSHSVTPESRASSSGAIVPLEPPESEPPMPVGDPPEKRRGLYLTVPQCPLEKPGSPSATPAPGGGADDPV
Cytochrome P450 2C9, sequence (P11712 whole entry): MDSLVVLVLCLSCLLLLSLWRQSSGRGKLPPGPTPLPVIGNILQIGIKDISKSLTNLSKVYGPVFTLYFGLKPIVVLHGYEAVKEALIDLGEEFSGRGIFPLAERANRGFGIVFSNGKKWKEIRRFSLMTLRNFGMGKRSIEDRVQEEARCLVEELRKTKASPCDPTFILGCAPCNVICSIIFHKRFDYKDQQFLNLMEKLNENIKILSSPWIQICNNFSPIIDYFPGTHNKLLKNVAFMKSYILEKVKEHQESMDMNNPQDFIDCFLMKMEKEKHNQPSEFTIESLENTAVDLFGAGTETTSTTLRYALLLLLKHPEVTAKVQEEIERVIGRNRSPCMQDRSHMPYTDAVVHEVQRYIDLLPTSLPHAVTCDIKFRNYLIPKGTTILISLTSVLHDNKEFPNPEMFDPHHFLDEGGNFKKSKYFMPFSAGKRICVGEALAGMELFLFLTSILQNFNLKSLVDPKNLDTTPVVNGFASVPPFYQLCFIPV

COc1ccccc1OC[C@H](O)CN1CCN(CC(=O)Nc2c(C)cccc2C)CC1
AC50 (Cytochrome P450 1A2 [1]): inactive

Cc1ccc(OCCN2C(=O)C(=O)c3cc(C)ccc32)cc1
AC50 [2]: 24.2 µM (active)
AC50 (CAAX prenyl protease 2 [3]): 1.6 µM (active)
AC50 [4]: 145 µM (active)
AC50 [5]: 4.64 µM (active)
AC50 (CAAX prenyl protease 2 [6]): 12.8 µM (active)

Cc1ccc([N+](=O)[O-])cc1N1C(=O)CS/C1=N\NC(=O)c1cccnc1
AC50 [7]: 48.7 µM (active)
AC50 (A-375 [8]): > 35 µM (active)
AC50 (A-375 [9]): > 35 µM (active)

CC(C)CN1C[C@@H]2C(CNC(=O)c3cc(Cl)cc(Cl)c3)[C@@H]2C1 (stereo partly specified)
EC50 [10]: 10 µM (active)

CN1C(CC(=O)Nc2ccc(Br)cc2)c2ccccc2CC1(C)C (stereo unspecified)
EC50 [11]: 2.11 µM (active)
EC50 [12]: 86.4 µM (inactive)
EC50 (Mu-type opioid receptor): > 92.5 µM (inactive)
EC50 [13]: > 92.5 µM (inactive)

N=c1c2c(n(Cc3ccc(Br)cc3)c3c1CCC3)CCCC2
EC50 [14]: 0.26 µM (active)
EC50 [15]: > 60 µM (inconclusive)
IC50 (Jurkat): 24.6 µM (inactive)
IC50 [16]: > 80 µM (inactive)
AC50 (INS1): 2.64 µM (active)

CC(NC(=O)c1ccc(N2CCCC2=O)cc1)c1ccccc1 (stereo unspecified)
AC50 (Cytochrome P450 1A2 [17]): 39.8 µM (inconclusive)
AC50 (Cytochrome P450 2C9): 15.8 µM (inconclusive)
AC50 (Cytochrome P450 3A4): inconclusive

Cc1cccc(C(=O)NNC(=S)NC(=O)c2cccs2)c1
EC50 [18]: > 160 µM (inactive)
EC50 [19]: 2.47 µM (active)
EC50 [11]: 5.96 µM (active)
IC50 (Vero [20]): 23.5 µM (active)
CC50 (Vero [21]): > 25 µM (active)

COc1ccc2nc(Nc3nc(C)c(CCC(C)C)c(O)n3)nc(C)c2c1
IC50 [22]: 1.95 µM (active)
IC50 [23]: 5.61 µM (active)

COc1ccc(C(=O)C2CCCN(CCc3ccccc3)C2)cc1OC (stereo unspecified)
EC50 [24]: 0.0558 µM (active)

N[C@@H](Cc1ccc(F)cc1)C(=O)O
AC50 [25]: 35.5 µM (inconclusive)
